According to patent US20080201790A1, “Method and product for regulating cell responsiveness to external signals” (priority 1993, published 2008):

System: B-Raf
Assay: Raf activation assay in L929 cells, B-Raf
Assay type: cell-based, murine
Protocol: Cell lines and culture. L929 cells (ATCC CCL1 were maintained in Dulbecco's modified Eagle's medium with 5% newborn calf serum and 5% bovine calf serum (BCS) supplemented with 100 ug/ml streptomycin and 100 U/ml penicillin. The cells were grown in 10 cm dishes at 37° C. in 7.5% CO2. Cells were made quiescent where indicated by incubation in Dulbecco's modified Eagle's medium and 0.1% bovine serum albumin for 24 h. Recombinant murine TNFα and recombinant human bFGF (147aa) were from R&D Systems, Minneapolis, Minn. Cells were pretreated where indicated with the MEK-1 inhibitor PD#098059 (Parke-Davis Pharmaceutical Corp. Ann Arbor, Mich.) for 1 h at 37° C. Cells were stimulated by incubation with the indicated cytokine or growth factor for various times at 37° C. […] JNK activity was measured using a solid state kinase assay in which glutathione S-transferase-c-Jun (1-79) (GST-JUN) cound to glutathione-Sepharose 4B beads was used to affinity purify JNK and then JNK activity was measured in an in vitro kinase assay using the sepharose bound GST-Jun as a substrate (Hibi, M., et al. (1993) Genes & Development 7:2135-2148). […] MAPK Assay MAPK activity was measured exactly as described previously (Gardner, A. M., et al. (1994) Meth. Enzymol. 238:258-270) with the exception that MonoQ FPLC fractionation was replaced by step elution from a DEAE-Sephacel column using 0.5 M NaCl in loading buffer. […]

Substance: TNFα
- activation of B-Raf (phosphorylation of kinase-inactive MEK-1): does not significantly activate either isoform of Raf

Substance: bFGF: recombinant human bFGF (147aa), basic fibroblast growth factor
- activation of B-Raf (phosphorylation of kinase-inactive MEK-1): activation of both B-Raf and C-Raf
